Test results taken from article PMC6489322, “Biochemical characterization of recombinant Avihepatovirus 3C protease and its localization” (Virology Journal, 2019).

Target: T1, DHAV 3C protease (avihepatovirus A1, UniProt Q076B4)
T1 construct: mature 3C cut from the genome polyprotein (aa 1614-1794, 181 aa); N-terminal His6 tag, pET32a (NdeI/HindIII), E. coli BL21, Ni-NTA; tag removal not described
Experiment: FRET peptide cleavage assay, inhibition
Format: biochemical
Settings: 5 uM protease, 20 uM Dabcyl-ASFMNQSKVRRFE-Edans; inhibitor at 50 and 100 uM; cleavage buffer (assay optimum pH 7.0, 150 mM NaCl, 37 °C)

CCOC(=O)/C=C/[C@H](C[C@@H]1CCNC1=O)NC(=O)[C@@H](CC(=O)[C@@H](NC(=O)c1cc(C)on1)C(C)C)Cc1ccc(F)cc1 [AG7088, Rupintrivir]
FRET peptide cleavage assay, inhibition: The results showed that AG7088 exhibited inhibitory activity against the DHAV 3C protease
